Test results taken from patent US20220073521A1, “PYRIMIDINE AND FIVE-MEMBERED NITROGEN HETEROCYCLE DERIVATIVE, PREPARATION METHOD THEREFOR, AND MEDICAL USES THEREOF” (Tuojie Biotech (Shanghai) Co., Ltd., priority 2018, published 2022).
Where two headings read alike, the source gives them in different places.

What was measured:
p-ERK in KYSE-520 cells = assay: Determination of p-ERK in KYSE-520 cells (HTRF); assay type: cell-based; details: Homo sapiens, KYSE-520, 2 h
Procedure: KYSE-520 cells (Nanjing Cobioer Biosciences CO., Ltd.) in the logarithmic growth phase were inoculated (30,000 cells/well) in 1640 medium containing 10% of FBS, and adhered in a 96-well plate overnight (5% CO2, 37° C.). […] The cell culture was stopped with cell lysate. The level of phosphorylated ERK in KYSE-520 cells was determined by a method based on homogeneous time-resolved fluorescence HTRF (Cisbio, 64ERKPEG). The fluorescence values (Ex337 nm/Em625/665 nm) were read on the compatible HTRF reader (MD SpectraMax).

KYSE-520 cells = assay: KYSE-520 cell proliferation experiment (CellTiter-Glo, 7 days); assay type: cell-based; details: Homo sapiens
Procedure: The treated cell plate was incubated at 37° C., 5% CO2 for 7 days. CellTiter-Glo (Promega, G7573) was used to determine the number of viable cells in each well of the treated plate. 100 μL of the detection reagent was added to each well, and the plate was incubated at room temperature for 10 minutes. Then, the […] in each well was measured with Envision plate reader (PerkinElmer). […] The IC50 value was further calculated as the compound concentration required for 50% proliferation inhibition in the best-fit curve with […].

hERG potassium channel = molecular target: T1, hERG potassium channel (Homo sapiens, UniProt Q12809); assay: hERG current inhibition experiment (manual patch clamp, CHO hERG cells); assay type: cell-based; details: whole-cell patch clamp, tail current
T1 construct: host or cells: CHO hERG cells
T1 sequence (Q12809 whole entry): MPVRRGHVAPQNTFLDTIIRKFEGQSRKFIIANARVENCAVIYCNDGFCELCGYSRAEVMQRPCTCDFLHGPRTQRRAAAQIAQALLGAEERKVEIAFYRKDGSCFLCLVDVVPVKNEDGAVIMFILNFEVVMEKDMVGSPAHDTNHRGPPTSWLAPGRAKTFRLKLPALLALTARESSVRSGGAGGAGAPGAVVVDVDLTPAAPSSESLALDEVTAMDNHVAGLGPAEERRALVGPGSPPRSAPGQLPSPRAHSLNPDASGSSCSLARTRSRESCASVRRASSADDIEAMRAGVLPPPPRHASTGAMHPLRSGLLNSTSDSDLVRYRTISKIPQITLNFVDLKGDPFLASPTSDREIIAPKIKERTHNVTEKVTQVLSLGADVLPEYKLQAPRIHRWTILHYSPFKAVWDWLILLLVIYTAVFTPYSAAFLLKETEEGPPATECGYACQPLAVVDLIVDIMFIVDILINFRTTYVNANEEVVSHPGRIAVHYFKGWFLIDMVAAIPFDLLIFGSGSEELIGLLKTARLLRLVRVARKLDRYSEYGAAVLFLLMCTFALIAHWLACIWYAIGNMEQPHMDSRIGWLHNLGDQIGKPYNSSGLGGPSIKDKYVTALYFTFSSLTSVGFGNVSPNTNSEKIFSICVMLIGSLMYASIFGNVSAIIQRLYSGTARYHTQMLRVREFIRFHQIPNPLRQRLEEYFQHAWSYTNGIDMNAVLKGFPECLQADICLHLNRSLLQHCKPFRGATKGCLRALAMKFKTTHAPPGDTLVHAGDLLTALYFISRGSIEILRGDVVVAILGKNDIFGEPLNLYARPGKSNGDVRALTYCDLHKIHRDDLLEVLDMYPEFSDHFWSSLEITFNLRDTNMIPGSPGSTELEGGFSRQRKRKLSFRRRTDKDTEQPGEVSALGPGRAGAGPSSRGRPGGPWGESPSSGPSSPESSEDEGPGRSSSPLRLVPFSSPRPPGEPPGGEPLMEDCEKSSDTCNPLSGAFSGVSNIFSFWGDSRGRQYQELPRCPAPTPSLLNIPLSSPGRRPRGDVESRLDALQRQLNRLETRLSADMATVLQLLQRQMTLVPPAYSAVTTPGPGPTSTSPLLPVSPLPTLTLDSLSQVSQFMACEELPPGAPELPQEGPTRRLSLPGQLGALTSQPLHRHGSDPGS
Procedure: In this experiment, whole-cell current recording was performed using a manual patch clamp system (HEKA EPC-10 signal amplification and digital conversion system, purchased from HEKA Electronic, Germany). The round glass slide of which surface CHO hERG cells (provided by Sophion Bioscience Inc., Denmark, the cell generation number was P21) were grown on was placed in an electrophysiological recording slot under an inverted microscope. The recording slot was continuously perfused with extracellular fluid (approximately 1 mL per minute). Conventional whole-cell patch clamp current recording technique was used in the experiment. The experiments were performed at normal room temperature (˜25° C.). The cells were clamped at a voltage of −80 mV. Cell patch clamp voltage was depolarized to +20 mV to activate hERG potassium channel, and to −50 mV after 5 seconds to eliminate inactivation and generate tail currents. The tail current peak was used as a value of hERG current. When the hERG potassium current recorded in the above steps became steady under continuous perfusion of the extracellular fluid in the recording slot, the drug to be tested could be added to the perfusion, until the inhibition effect of the drug on hERG current reached a steady state. Generally, the overlapping of most recent three consecutive current recording lines was used as a criterion to determine whether the state was stable. After reaching the steady state, the recording slot was perfused with extracellular fluid until the hERG current returned to the value before the drug adding. The test data was analyzed by HEKA Patchmaster (V2x73.2), Microsoft Excel and the data analysis software provided by Graphpad Prism 5.0.

[1] = molecular target: T2, SHP2 wild-type phosphatase (recombinantly expressed full-length SHP2, aa 1-593) (Homo sapiens, UniProt Q06124); assay: In vitro activity on SHP2 wild-type phosphatase (DiFMUP fluorescence); details: wild-type full-length SHP2, activated polypeptide IRS1 0.5 nM, DiFMUP 30 μM;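 note: enzyme preincubated at room temperature, then DiFMUP reaction run at room temperature and halted with SDS, potency derived from a logistic curve fit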
T2 sequence (Q06124 1-593): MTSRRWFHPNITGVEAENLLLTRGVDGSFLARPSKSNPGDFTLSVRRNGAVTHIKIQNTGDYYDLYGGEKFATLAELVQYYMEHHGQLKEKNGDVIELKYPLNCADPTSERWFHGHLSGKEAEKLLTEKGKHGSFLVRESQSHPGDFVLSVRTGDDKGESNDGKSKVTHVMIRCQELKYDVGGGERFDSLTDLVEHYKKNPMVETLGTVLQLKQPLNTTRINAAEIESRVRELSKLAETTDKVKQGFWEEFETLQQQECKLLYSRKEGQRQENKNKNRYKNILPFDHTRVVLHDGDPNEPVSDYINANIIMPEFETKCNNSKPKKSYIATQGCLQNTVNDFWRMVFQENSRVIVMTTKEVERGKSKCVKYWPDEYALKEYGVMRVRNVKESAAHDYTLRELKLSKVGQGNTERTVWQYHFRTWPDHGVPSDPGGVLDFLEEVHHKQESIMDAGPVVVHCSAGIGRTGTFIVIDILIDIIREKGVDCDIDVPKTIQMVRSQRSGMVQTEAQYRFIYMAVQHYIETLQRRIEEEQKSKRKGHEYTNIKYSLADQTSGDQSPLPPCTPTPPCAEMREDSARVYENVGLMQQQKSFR

[2] = Pharmacokinetics assay in rats; assay type: in vivo, SD rats; details: rat; for AUC: read-out: Area under curve AUC; for half-life: read-out: Half-life T1/2 (converted)
Procedure: Rats were used as test animals. The drug concentration in plasma at different time points was determined by LC/MS/MS method after intravenous administration or intragastrical administration of the compound of the present invention to rats. The pharmacokinetic behavior of the compound of the present invention was studied and evaluated in rats.
The atropisomer with a RT of 1.495 minutes in Examples 3 and 4, compounds of Example 17, Example 41 and Example 43.
Healthy male SD rats (6-8 weeks old), 3 rats per group.
Intravenous administration: A certain amount of the test compound was weighed, to which 10% by volume of N,N-dimethylacetamide, 33% by volume of triethylene glycol and 57% by volume of water were added to prepare a 1 mg/mL colorless, clear and transparent solution;
Intragastrical administration: A certain amount of the test compound was weighed, to which 0.5% by mass of hypromellose, 0.1% by volume of Tween 80 and 99.4% by volume of water were added to prepare a 1 mg/mL white suspension.
After an overnight fast, the SD rats were intravenously administered the test compound at an administration dose of 1 mg/kg, or intragastrically administered the test compound at an administration dose of 5 mg/kg.
(§1) The rats were intravenously administered the compound of the present invention. 0.2 ml of blood was taken from the jugular vein at 0.083, 0.25, 0.5, 1, 2, 4, 8 and 24 hours after the administration. The samples were placed in tubes containing EDTA-K2, and centrifuged at 4000 rpm and 4° C. for 5 minutes to separate the blood plasma. The plasma samples were stored at −75° C.
as §1, with “Or, the rats” for “The rats”, “were intragastrically” for “were intravenously”, “at” for “at 0.083,”
The content of the test compound in the plasma of rat after intragastrical administration of the test compound at different concentrations was determined: 50 μL of rat plasma at each time after administration was taken, to which 200 μL of a solution (50 ng/mL) of internal standard dexamethasone in acetonitrile was added. The plasma was vortex-mixed for 30 seconds, and centrifuged at 4700 rpm and 4° C. for 15 minutes. The supernatant was taken from the plasma samples, and a three-fold dilution was carried out by adding water. 2.0 μL of the supernatant was used for LC/MS/MS analysis.

In the case of Cc1nc(N2CCC3(CC2)Cc2ncccc2[C@H]3N)n2ccnc2c1Sc1ccnc(N)c1Cl [Example 42, (S)-1′-(8-((2-Amino-3-chloropyridin-4-yl)thio)-7-methylimidazo[1,2-c]pyrimidin-5-yl)-5,7-dihydrospiro[cyclopenta[b]pyridine-6,4′-piperidin]-5-amine], the IC50 (p-ERK in KYSE-520 cells) is reported as 20.2 nM, the IC50 (KYSE-520 cells) is reported as 65.1 nM and the IC50 (hERG potassium channel) is reported as > 30000 nM. For the same compound, the IC50 [1] was 1.9 nM.

Work on N[C@@H]1c2cccnc2CC12CCN(c1ncc(Sc3ccnc(NC4CC4)c3Cl)c3nccn13)CC2 [Example 36, (S)-1′-(8-((3-Chloro-2-(cyclopropylamino)pyridin-4-yl)thio)imidazo[1,2-c]pyrimidin-5-yl)-5,7-dihydrospiro[cyclopenta[b]pyridine-6,4′-piperidin]-5-amine] yielded an IC50 (p-ERK in KYSE-520 cells) of 8 nM, an IC50 (KYSE-520 cells) of 40.5 nM and an IC50 (hERG potassium channel) of 3970 nM. The IC50 [1] was 2.6 nM.

In the case of C[C@@H]1OCC2(CCN(c3ncc(Sc4cccnc4C(F)(F)F)c4nccn34)CC2)[C@@H]1N [Example 17, (3S,4S)-3-Methyl-8-(8-((2-(trifluoromethyl)pyridin-3-yl)thio)imidazo[1,2-c]pyrimidin-5-yl)-2-oxa-8-azaspiro[4.5]decan-4-amine], the IC50 (p-ERK in KYSE-520 cells) is reported as 32.3 nM, the IC50 (KYSE-520 cells) is reported as 179 nM and the IC50 (hERG potassium channel) is reported as 12300 nM. It also gave an AUC ([2]; male, SD, plasma, IV 1 mg/kg) of 764 ± 196 ng·h/mL, a clearance ([2]; male, SD, plasma, IV 1 mg/kg, read-out: Clearance CL_obs) of 21.5 ± 5.2 mL/min/kg and a half-life ([2]; male, SD, plasma, IV 1 mg/kg) of 2.83 ± 0.93 h. For the same compound, the bioavailability ([2]; male, SD, plasma, PO 5 mg/kg vs IV 1 mg/kg, read-out: Bioavailability F) was 80.3 ± 8.5%, the AUC ([2]; male, SD, plasma, PO 5 mg/kg) was 3210 ± 351 ng·h/mL and the half-life ([2]; male, SD, plasma, PO 5 mg/kg) was 3.42 ± 0.37 h. For the same compound, the Cmax ([2]; male, SD, plasma, PO 5 mg/kg, read-out: Maximum plasma concentration Cmax) was 408 ± 77 ng/mL, the “Apparent distribution volume Vss_obs” value ([2]; IV 1 mg/kg) was 3.8 ± 0.1 L/kg and the IC50 [1] was 4.2 nM.

With C[C@@H]1OCC2(CCN(c3nc(N)c(Sc4cccnc4C(F)(F)F)c4nccn34)CC2)[C@@H]1N [Example 24, (3S,4S)-8-(7-Amino-8-((2-(trifluoromethyl)pyridin-3-yl)thio)imidazo[1,2-c]pyrimidin-5-yl)-3-methyl-2-oxa-8-azaspiro[4.5]decan-4-amine] the IC50 (p-ERK in KYSE-520 cells) was 11 nM, the IC50 (KYSE-520 cells) was 75.9 nM and the IC50 (hERG potassium channel) was > 30000 nM. The IC50 [1] was 4.4 nM.
